# What was measured:
# Monkey [1] = assay: Tested for ability to maintain self-administration after administration of 0.3 mg/kg in monkey 3038 (1-2); format: functional, Cercopithecidae
# Monkey [2] = assay: Tested for ability to maintain self-administration after administration of 0.3 mg/kg in monkey 9079 (0-2); format: functional, Cercopithecidae
# Monkey [3] = assay: Tested for ability to maintain self-administration after administration of 0.3 mg/kg in monkey 9083 (1-4); format: functional, Cercopithecidae
# Monkey [4] = assay: Tested for ability to maintain self-administration after administration of 1 mg/kg in monkey 9079 (0-3); format: functional, Cercopithecidae
# Monkey [5] = assay: Tested for ability to maintain self-administration after administration of 0.3 mg/kg in monkey 3017 (0-1); format: functional, Cercopithecidae
# Monkey [6] = assay: Tested for ability to maintain self-administration after administration of 0.003 mg/kg in monkey 2036 Range (5-9); format: functional, Cercopithecidae
# Monkey [7] = assay: Tested for ability to maintain self-administration after administration of 0.003 mg/kg in monkey 2037 Range (2-6); format: functional, Cercopithecidae
# Monkey [8] = assay: Tested for ability to maintain self-administration after administration of 0.003 mg/kg in monkey 3017 Range (1-2); format: functional, Cercopithecidae
# Monkey [9] = assay: Tested for ability to maintain self-administration after administration of 0.003 mg/kg in monkey 3038 Range (1-7); format: functional, Cercopithecidae
# Monkey [10] = assay: Tested for ability to maintain self-administration after administration of 0.003 mg/kg in monkey 9079 Range (1-6); format: functional, Cercopithecidae
# Monkey [11] = assay: Tested for ability to maintain self-administration after administration of 0.003 mg/kg in monkey 9083 Range (13-21); format: functional, Cercopithecidae
# Monkey [12] = assay: Tested for ability to maintain self-administration after administration of 0.01 mg/kg in monkey 9079 Range (1-3); format: functional, Cercopithecidae
# Monkey [13] = assay: Tested for ability to maintain self-administration after administration of 0.03 mg/kg in monkey 2036 Range (2-3); format: functional, Cercopithecidae
# Monkey [14] = assay: Tested for ability to maintain self-administration after administration of 0.03 mg/kg in monkey 2037 Range (7-9); format: functional, Cercopithecidae
# Monkey [15] = assay: Tested for ability to maintain self-administration after administration of 0.03 mg/kg in monkey 3017 Range (1-7); format: functional, Cercopithecidae
# Monkey [16] = assay: Tested for ability to maintain self-administration after administration of 0.03 mg/kg in monkey 3038 Range (1-10); format: functional, Cercopithecidae
# Monkey [17] = assay: Tested for ability to maintain self-administration after administration of 0.03 mg/kg in monkey 9079 Range (2-24); format: functional, Cercopithecidae
# Monkey [18] = assay: Tested for ability to maintain self-administration after administration of 0.03 mg/kg in monkey 9083 Range (7-11); format: functional, Cercopithecidae
# Monkey [19] = assay: Tested for ability to maintain self-administration after administration of 0.3 mg/kg in monkey 2036 (1-5); format: functional, Cercopithecidae
# Monkey [20] = assay: Tested for ability to maintain self-administration after administration of 0.001 mg/kg in monkey 3038 Range (2-5); format: functional, Cercopithecidae
# Monkey [21] = assay: Tested for ability to maintain self-administration after administration of 0.3 mg/kg in monkey 2037 (0-4); format: functional, Cercopithecidae
# Mus musculus [22] = species: Mus musculus; assay: Effect on hexobarbital induced sleep was determined in hexobarbital potentiation test; Range (9.6-17.1); format: functional
# Mus musculus [23] = assay: Antiaggressive anxiolytic activity in the electroshock-induced fighting test in mice (po); Range (1.03-4.7;); format: functional
# Mus musculus [24] = species: Mus musculus; assay: Ataxic activity in mice by rotarod test; Range (2.2-6.4); format: functional
# [25] = Ratio of ED50 (hexobarbital) to that of ED50 (fighting); format: functional
# [26] = Ratio of ED50 (rotarod) to that of ED50 (fighting); format: functional
# Mus musculus [27] = species: Mus musculus; assay: Effect on hexobarbital induced sleep was determined in hexobarbital potentiation test; Range (172.3-227.4); format: functional
# Mus musculus [28] = assay: Antiaggressive anxiolytic activity in the electroshock-induced fighting test in mice (po); Range (0.58-2.63); format: functional
# Mus musculus [29] = species: Mus musculus; assay: Ataxic activity in mice by rotarod test; Range (86.2-116.6); format: functional
# Mus musculus [30] = species: Mus musculus; assay: Effect on alcohol induced sleep was determined in ethanol potentiation test; Range (26.6-77.9); format: functional
# Mus musculus [31] = assay: Effect on hexobarbital induced sleep was determined in hexobarbital potentiation test (po); Range (36.0-59.6); format: functional
# Mus musculus [32] = assay: Antiaggressive anxiolytic activity in the electroshock-induced fighting test in mice (po); Range (0.9-1.8); format: functional
# Mus musculus [33] = species: Mus musculus; assay: Ataxic activity in mice by rotarod test; Range (89.6-160.6); format: functional
# Rattus norvegicus = assay: Antiaggressive anxiolytic activity in the hexagonal maze test in rat after ip administration of 0.3 mg/kg; format: functional; settings: route intraperitoneal
# Monkey [34] = assay: Tested for ability to maintain self-administration after administration of 0.3 mg/kg in monkey 3017 Range (28-50); format: functional, Cercopithecidae
# Monkey [35] = assay: Tested for ability to maintain self-administration after administration of 0.3 mg/kg in monkey 3038 Range (12-32); format: functional, Cercopithecidae
# Monkey [36] = assay: Tested for ability to maintain self-administration after administration of 0.3 mg/kg in monkey 9079 Range (32-53); format: functional, Cercopithecidae
# Monkey [37] = assay: Tested for ability to maintain self-administration after administration of 0.3 mg/kg in monkey 9083 Range (14-23); format: functional, Cercopithecidae
# Monkey [38] = assay: Tested for ability to maintain self-administration after administration of 0.56 mg/kg in monkey 9079 Range (15-18); format: functional, Cercopithecidae
# Monkey [39] = assay: Tested for ability to maintain self-administration after administration of 0.01 mg/kg in monkey 2036 Range (25-28); format: functional, Cercopithecidae
# Monkey [40] = assay: Tested for ability to maintain self-administration after administration of 0.01 mg/kg in monkey 2037 Range (33-51); format: functional, Cercopithecidae
# Monkey [41] = assay: Tested for ability to maintain self-administration after administration of 0.01 mg/kg in monkey 3017 Range (14-22); format: functional, Cercopithecidae
# Monkey [42] = assay: Tested for ability to maintain self-administration after administration of 0.03 mg/kg in monkey 2036 Range (30-36); format: functional, Cercopithecidae
# Monkey [43] = assay: Tested for ability to maintain self-administration after administration of 0.03 mg/kg in monkey 2037 Range (63-73); format: functional, Cercopithecidae
# Monkey [44] = assay: Tested for ability to maintain self-administration after administration of 0.03 mg/kg in monkey 3017 Range (26-29); format: functional, Cercopithecidae
# Monkey [45] = assay: Tested for ability to maintain self-administration after administration of 0.03 mg/kg in monkey 3038 Range (0-14); format: functional, Cercopithecidae
# Monkey [46] = assay: Tested for ability to maintain self-administration after administration of 0.03 mg/kg in monkey 9083 Range (19-47); format: functional, Cercopithecidae
# Monkey [47] = assay: Tested for ability to maintain self-administration after administration of 0.1 mg/kg in monkey 2036 Range (37-43); format: functional, Cercopithecidae
# Monkey [48] = assay: Tested for ability to maintain self-administration after administration of 0.1 mg/kg in monkey 2037; format: functional, Cercopithecidae
# Monkey [49] = assay: Tested for ability to maintain self-administration after administration of 0.1 mg/kg in monkey 3017 Range ([…]); format: functional, Cercopithecidae
# Monkey [50] = assay: Tested for ability to maintain self-administration after administration of 0.1 mg/kg in monkey 3038 Range (42-58); format: functional, Cercopithecidae
# Monkey [51] = assay: Tested for ability to maintain self-administration after administration of 0.1 mg/kg in monkey 9079 Range (5-20); format: functional, Cercopithecidae
# Monkey [52] = assay: Tested for ability to maintain self-administration after administration of 0.1 mg/kg in monkey 9083 Range (20-32); format: functional, Cercopithecidae
# Monkey [53] = assay: Tested for ability to maintain self-administration after administration of 0.3 mg/kg in monkey 2036 Range (10-12); format: functional, Cercopithecidae
smiles,measurement,setting,value
COc1ccccc1N1CCN(CC(O)COc2cc(OC)c(OC)c(OC)c2)CC1 (stereo unspecified) [ENCIPRAZINE],Effect,Monkey [1],1.3
same,Effect,Monkey [2],1
same,Effect,Monkey [3],2.7
same,Effect,Monkey [4],1.3
same,Effect,Monkey [5],0.3
same,Effect,Monkey [6],7
same,Effect,Monkey [7],4.3
same,Effect,Monkey [8],1.7
same,Effect,Monkey [9],4
same,Effect,Monkey [10],3
same,Effect,Monkey [11],17.7
same,Effect,Monkey [12],2
same,Effect,Monkey [13],2.3
same,Effect,Monkey [14],7.7
same,Effect,Monkey [15],4.3
same,Effect,Monkey [16],4.3
same,Effect,Monkey [17],13.7
same,Effect,Monkey [18],9
same,Effect,Monkey [19],3
same,Effect,Monkey [20],3.5
same,Effect,Monkey [21],2
CN1C(=O)CC(=O)N(c2ccccc2)c2cc(Cl)ccc21 [CLOBAZAM],ED50,Mus musculus [22],13.2 mg/kg
same,ED50,Mus musculus [23],2.35 mg/kg
same,ED50,Mus musculus [24],4.1 mg/kg
same,Therapeutic index,[25],5.6
same,Therapeutic index,[26],1.8
COc1cc(OCC(O)CN2CCN(c3ccccc3O)CC2)cc(OC)c1OC (stereo unspecified),ED50,Mus musculus [27],200 mg/kg
same,ED50,Mus musculus [28],1.3 mg/kg
same,ED50,Mus musculus [29],100 mg/kg
same,Therapeutic index,[25],154
same,Therapeutic index,[26],77
COc1ccccc1N1CCN(CC(O)COc2cc(OC)c(OC)c(OC)c2)CC1.Cl (stereo unspecified),ED50,Mus musculus [30],45.5 mg/kg
same,ED50,Mus musculus [31],46.4 mg/kg
same,ED50,Mus musculus [32],1.4 mg/kg
same,ED50,Mus musculus [33],120 mg/kg
same,Prolongation,Rattus norvegicus,3.2%
CCN(CC)CCN1C(=O)CN=C(c2ccccc2F)c2cc(Cl)ccc21 [FLURAZEPAM],Effect,Monkey [34],40.3
same,Effect,Monkey [35],22
same,Effect,Monkey [36],44.7
same,Effect,Monkey [37],18.3
same,Effect,Monkey [38],16.7
same,Effect,Monkey [39],26
same,Effect,Monkey [40],40.7
same,Effect,Monkey [41],17.7
same,Effect,Monkey [42],33
same,Effect,Monkey [43],68
same,Effect,Monkey [44],27.5
same,Effect,Monkey [45],8
same,Effect,Monkey [46],29
same,Effect,Monkey [47],40
same,Effect,Monkey [48],33
same,Effect,Monkey [49],54.7
same,Effect,Monkey [50],50
same,Effect,Monkey [51],12.5
same,Effect,Monkey [52],26.3
same,Effect,Monkey [53],11
